Experimental data as given in ChEMBL document CHEMBL6178021, “Optimization of Tambjamines Active against Multiple Stages of Malaria Parasites” (J Med Chem, 2025).
≈ marks a conversion by molar mass, not a printed value.

Assays:
Plasmodium falciparum [1] = test: microbe, parasite or virus in culture; details: Dd2, 72 h
Description: Antiplasmodial activity against asexual blood-stage Plasmodium falciparum Dd2 using 2% haematocrit and 0.2% parasitemia assessed as reduction in fluorescence measured after 72 hrs by Malaria SYBR Green I-based Fluorescence (MSF) assay

HepG2 = test: Cytotoxicity against human HepG2 cells assessed as cell viability measured after 48 hrs by MTT assay; type: toxicity, cell-based; details: hepg2
Plasmodium yoelii [2] = test: Antimalarial activity against erythrocytic Plasmodium yoelii MRA-428 infected in CF1 mouse assessed as cured mouse at 25 mg/kg, po once daily for 4 days measured on day 28 day; type: functional, organism-based; details: time 4.0 day
Plasmodium falciparum [3] = test: Antiplasmodial activity against asexual blood-stage Plasmodium falciparum Tm90-C2B using 2% haematocrit and 0.2% parasitemia assessed as reduction in fluorescence measured after 72 hrs by Malaria SYBR Green I-based Fluorescence (MSF) assay; type: functional, organism-based
MDR1 (human) [4] = test: Apparent permeability across basolateral to apical side in MDCK transfected with human MDR1 cells incubated for 1 hr by LC-MS analysis; details: dog, MDCK-MDR1
[5] = Metabolic stability in mouse liver microsomes assessed as half life measured up to 60 mins by LC/MS analysis; type: ADME, Microsome
Plasmodium yoelii [6] = test: Antimalarial activity against erythrocytic Plasmodium yoelii MRA-428 infected in CF1 mouse assessed as reduction in parasitemia at 10 mg/kg, po once daily for 4 days measured on day 5; type: functional; design: scale not given: the % may be the effect or the level left; details: time 4 day
Plasmodium yoelii [7] = test: Antimalarial activity against erythrocytic Plasmodium yoelii MRA-428 infected in CF1 mouse assessed as reduction in parasitemia at 50 mg/kg, po once daily for 4 days measured on day 5; type: functional; design: scale not given: the % may be the effect or the level left; details: time 4 day
MDR1 (human) [8] = test: Apparent permeability across apical to basolateral side in MDCK transfected with human MDR1 cells incubated for 1 hr by LC-MS analysis; details: dog, MDCK-MDR1
in vitro [9] = details: human, liver microsomes
Plasmodium falciparum [10] = test: microbe, parasite or virus in culture; details: D6, 72 h
Description: Antiplasmodial activity against asexual blood-stage Plasmodium falciparum D6 using 2% haematocrit and 0.2% parasitemia assessed as reduction in fluorescence measured after 72 hrs by Malaria SYBR Green I-based Fluorescence (MSF) assay

Plasmodium yoelii [11] = test: Antimalarial activity against erythrocytic Plasmodium yoelii MRA-428 infected in CF1 mouse assessed as reduction in parasitemia at 25 mg/kg, po once daily for 4 days measured on day 5; type: functional; design: scale not given: the % may be the effect or the level left; details: time 4 day
MDR1 (human) [12] = test: Efflux ratio, ratio of apparent permeability across apical to basolateral side over basolateral to apical side in MDCK transfected with human MDR1 cells incubated for 1 hr by LC-MS analysis; details: dog
[13] = Solubility of the compound in potassium phosphate buffer at pH 7.4 by UV-vis spectroscopy; details: buffer
Plasmodium yoelii [14] = test: Antimalarial activity against erythrocytic Plasmodium yoelii MRA-428 infected in CF1 mouse assessed as cured mouse at 50 mg/kg, po once daily for 4 days measured on day 28 day; type: functional, organism-based; details: time 4.0 day
[15] = Metabolic stability in human liver microsomes assessed as half life measured up to 60 mins by LC/MS analysis; type: ADME, Microsome
in vitro [16] = details: human
Description: Selectivity index, ratio of IC50 for cytotoxicity against human HepG2 cells to IC50 for antiplasmodial activity against asexual blood-stage Plasmodium falciparum D6

in vitro [17] = details: mouse, liver microsomes
Plasmodium yoelii [18] = test: Antimalarial activity against erythrocytic Plasmodium yoelii MRA-428 infected in CF1 mouse assessed as cured mouse at 80 mg/kg, po once daily for 4 days measured on day 28 day; type: functional, organism-based; details: time 4.0 day
Plasmodium yoelii [19] = test: Antimalarial activity against erythrocytic Plasmodium yoelii MRA-428 infected in CF1 mouse assessed as reduction in parasitemia at 80 mg/kg, po once daily for 4 days measured on day 5; type: functional; design: scale not given: the % may be the effect or the level left; details: time 4 day

SMILES	IC50 (Plasmodium falciparum [1]) [nM]	IC50 (HepG2) [nM]	Activity (Plasmodium yoelii [2])	IC50 (Plasmodium falciparum [3]) [nM]	Papp B→A at 1 h (MDR1 (human) [4]) [×10⁻⁶ cm/s]	half-life [5] [min]	Activity (Plasmodium yoelii [6]) [%]	Activity (Plasmodium yoelii [7]) [%]	Papp A→B at 1 h (MDR1 (human) [8]) [×10⁻⁶ cm/s]	microsomal CLint at 1 h (in vitro [9]) [µL/min/mg]	IC50 (Plasmodium falciparum [10]) [nM]	Activity (Plasmodium yoelii [11]) [%]	efflux ratio at 1 h (MDR1 (human) [12])	solubility [13] [µM]	Activity (Plasmodium yoelii [14])	half-life [15] [min]	selectivity ratio (in vitro [16])	microsomal CLint at 1 h (in vitro [17]) [µL/min/mg]	Activity (Plasmodium yoelii [18])	Activity (Plasmodium yoelii [19]) [%]
CCC1=C(CC)/C(=C/NC23C[C@H]4C[C@@H](C2)C[C@@H](C3)C4)N=C1c1ccc(CC)[nH]1	1.16	1500	Not active; None Of The Mouse Cured Out Of Four Tested	0.984	22	50.3	53	100	31	18.5	0.95	100	0.71	10.3 (≈ 3.89 µg/mL)	Not active; None Of The Mouse Cured Out Of Four Tested	> 60	1580	27.5		
CCc1ccc(C2=N/C(=C\NC3CCCCC3)C3=C2CCCC3)[nH]1	1.4	1190	Not active; None Of The Mouse Cured Out Of Four Tested	1.41	0.22	> 60	43.1	100	0.007	6.93	3.5	100		19.5 (≈ 6.31 µg/mL)	Not active; None Of The Mouse Cured Out Of Four Tested	> 60		5.71	Not active; None Of The Mouse Cured Out Of Four Tested	100
CCC1=C(C)/C(=C/NC2CCCCCCC2)N=C1c1ccc(C)[nH]1	3.43	3510	Not active; None Of The Mouse Cured Out Of Four Tested	4.59	0.04	> 60	96.5	100	0.063	30.5	6.59	100		19.9 (≈ 6.48 µg/mL)	Not active; None Of The Mouse Cured Out Of Four Tested	45.4		0.47	Active; Three Mouse Cured Out Of Four	100
CCC1=C(C)/C(=C/NC2CCCCCC2)N=C1c1ccc(C)[nH]1	18.6	6120	Not active; None Of The Mouse Cured Out Of Four Tested	23.4		> 60	55.3	100		28.3	29.5	100		25.7 (≈ 8 µg/mL)	Not active; None Of The Mouse Cured Out Of Four Tested	48.9		8.16	Active; Three Mouse Cured Out Of Four	100
CCC1=C(CC)/C(=C/NC2CCCCCCC2)N=C1c1ccc(C)[nH]1	5.75	3190	Active; Four Mouse Cured Out Of Four	4.95	0.066	> 60	68.5		0.006	20.6	10.6	100		< 3.125		> 60		16.8	Not active; None Of The Mouse Cured Out Of Four Tested	100
CCC1=C(C)/C(=C/NC2CCCCCC2)N=C1c1ccc(CC)[nH]1	10.8	4230	Not active; None Of The Mouse Cured Out Of Four Tested	7.5	0.037	> 60	43.8	100	0.036	35.1	8.4	100		12.5 (≈ 4.07 µg/mL)	Not active; None Of The Mouse Cured Out Of Four Tested	39.6		22	Active; Four Mouse Cured Out Of Four	100
CCc1ccc(C2=N/C(=C\NC3CCCCCC3)C(C)=C2C)[nH]1	1.32			1.55	0.035	> 60	42.8	100		6.78	2.1	94.1		93.1 (≈ 29 µg/mL)		> 60		4.36	Not active; None Of The Mouse Cured Out Of Four Tested	100
CCC1=C(C)/C(=C/NC23C[C@H]4C[C@@H](C2)C[C@@H](C3)C4)N=C1c1ccc(CC)[nH]1	0.348	2970	Not active; None Of The Mouse Cured Out Of Four Tested	0.844	0.027	> 60	100	100	0.026		0.909	100	1	3.95 (≈ 1.44 µg/mL)	Not active; None Of The Mouse Cured Out Of Four Tested	> 60	3270			
CCC1=C(CC)/C(=C/N[C@H]2CC[C@H](C(F)(F)F)CC2)N=C1c1ccc[nH]1	111	24500	Not active; None Of The Mouse Cured Out Of Four Tested	169	0.6	53.6	95.7	100	1.4	61.6	196	100	0.43	314 (≈ 115 µg/mL)	Not active; None Of The Mouse Cured Out Of Four Tested	22.5	125	25.9		
FC(F)(F)[C@H]1CC[C@H](N/C=C2\N=C(c3ccc[nH]3)C3=C2CCCC3)CC1	49.6	12400	Not active; None Of The Mouse Cured Out Of Four Tested	32.7	0.52	> 60		100	1.2	40.8		100	0.43	237 (≈ 86.1 µg/mL)	Not active; One Mouse Cured Out Of Four	33.9	366	5.49		
CCC1=C(C)/C(=C/NC2CCCCC2)N=C1c1ccc(CC)[nH]1	14.9	6010	Not active; None Of The Mouse Cured Out Of Four Tested	13.3	0.23	> 60	45.7	100	0.46	40.4	33.8	100		23 (≈ 7.16 µg/mL)	Not active; None Of The Mouse Cured Out Of Four Tested	34.3		13.1	Active; Four Mouse Cured Out Of Four	100
COC1=C(OC)/C(=C/NC23C[C@H]4C[C@@H](C2)C[C@@H](C3)C4)N=C1c1ccc[nH]1	5.96	4660	Not active; One Mouse Cured Out Of Four	4.46	0.025	43.2	63.1	100	0.27	78.7		100	0.093	167 (≈ 59 µg/mL)	Not active; None Of The Mouse Cured Out Of Four Tested	17.6	789	32.1		
